Source: ChEMBL document CHEMBL4321841, “Development of small molecule inhibitors targeting NLRP3 inflammasome pathway for inflammatory diseases” (Eur J Med Chem, 2020)
Each block holds one compound with its values, some of them ahead of it.

Experiments:
[1] = target: NACHT, LRR and PYD domains-containing protein 3 (Mus musculus) (UniProt Q8R4B8); test: Inhibition of NLRP3 inflammasome activation in LPS-primed mouse J774A.1 cells assessed as reduction in IL-1beta level at 10 uM preincubated for 1 hr followed by addition of ATP and measured after 30 mins by ELISA method relative to control
Chain of NACHT, LRR and PYD domains-containing protein 3 (Mus musculus) (Q8R4B8 whole entry, the tested form may be a part): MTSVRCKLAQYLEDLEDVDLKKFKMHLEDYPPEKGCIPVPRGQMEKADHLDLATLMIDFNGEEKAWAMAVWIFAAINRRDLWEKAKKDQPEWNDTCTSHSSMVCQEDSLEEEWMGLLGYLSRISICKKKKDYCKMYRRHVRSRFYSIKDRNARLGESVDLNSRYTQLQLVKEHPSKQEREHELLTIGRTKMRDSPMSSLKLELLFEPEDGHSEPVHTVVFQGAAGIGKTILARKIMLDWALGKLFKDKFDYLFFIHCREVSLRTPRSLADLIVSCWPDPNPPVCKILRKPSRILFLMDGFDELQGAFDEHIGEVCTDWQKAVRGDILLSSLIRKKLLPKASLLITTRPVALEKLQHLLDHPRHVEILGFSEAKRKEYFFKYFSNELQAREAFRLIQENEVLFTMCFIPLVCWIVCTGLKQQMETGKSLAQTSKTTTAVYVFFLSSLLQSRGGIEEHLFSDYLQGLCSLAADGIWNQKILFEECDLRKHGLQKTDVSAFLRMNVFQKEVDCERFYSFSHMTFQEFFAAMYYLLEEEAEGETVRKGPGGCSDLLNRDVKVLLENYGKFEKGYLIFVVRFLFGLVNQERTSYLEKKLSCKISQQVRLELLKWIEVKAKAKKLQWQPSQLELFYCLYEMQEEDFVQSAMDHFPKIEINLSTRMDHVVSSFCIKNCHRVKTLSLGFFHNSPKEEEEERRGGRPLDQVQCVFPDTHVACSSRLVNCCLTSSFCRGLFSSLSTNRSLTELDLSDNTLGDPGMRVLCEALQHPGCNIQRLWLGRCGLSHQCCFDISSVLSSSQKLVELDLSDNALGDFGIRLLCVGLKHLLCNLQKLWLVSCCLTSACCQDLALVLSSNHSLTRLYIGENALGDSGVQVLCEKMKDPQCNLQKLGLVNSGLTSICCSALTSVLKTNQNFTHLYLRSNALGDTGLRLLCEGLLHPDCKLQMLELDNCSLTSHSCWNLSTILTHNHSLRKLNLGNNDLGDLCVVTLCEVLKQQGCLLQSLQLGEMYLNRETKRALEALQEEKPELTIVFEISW

[2] = Cmax in mouse at 1000 mg, po administered once daily for 8 days; type: ADME, organism-based; parameters: dose 1000 mg, route oral; settings: in vivo
[3] = target: T1, NACHT, LRR and PYD domains-containing protein 3 (Mus musculus, UniProt Q8R4B8); test: Inhibition of NLRP3 inflammasome activation in LPS-primed mouse J774A.1 cells assessed as reduction in IL-1beta level preincubated for 30 mins followed by addition of nigericin and measured after 40 mins by ELISA
T1 sequence (Q8R4B8 whole entry, the tested form may be a part): as above

[4] = target: T2, NACHT, LRR and PYD domains-containing protein 3 (Homo sapiens, UniProt Q96P20); test: Inhibition of NLRP3 inflammasome activation in LPS-stimulated human THP1 cells assessed as reduction in IL-1beta level at 10 uM preincubated for 1 hr followed by addition of ATP and measured after 1 hr by ELISA method relative to control
T2 sequence (Q96P20 whole entry, the tested form may be a part): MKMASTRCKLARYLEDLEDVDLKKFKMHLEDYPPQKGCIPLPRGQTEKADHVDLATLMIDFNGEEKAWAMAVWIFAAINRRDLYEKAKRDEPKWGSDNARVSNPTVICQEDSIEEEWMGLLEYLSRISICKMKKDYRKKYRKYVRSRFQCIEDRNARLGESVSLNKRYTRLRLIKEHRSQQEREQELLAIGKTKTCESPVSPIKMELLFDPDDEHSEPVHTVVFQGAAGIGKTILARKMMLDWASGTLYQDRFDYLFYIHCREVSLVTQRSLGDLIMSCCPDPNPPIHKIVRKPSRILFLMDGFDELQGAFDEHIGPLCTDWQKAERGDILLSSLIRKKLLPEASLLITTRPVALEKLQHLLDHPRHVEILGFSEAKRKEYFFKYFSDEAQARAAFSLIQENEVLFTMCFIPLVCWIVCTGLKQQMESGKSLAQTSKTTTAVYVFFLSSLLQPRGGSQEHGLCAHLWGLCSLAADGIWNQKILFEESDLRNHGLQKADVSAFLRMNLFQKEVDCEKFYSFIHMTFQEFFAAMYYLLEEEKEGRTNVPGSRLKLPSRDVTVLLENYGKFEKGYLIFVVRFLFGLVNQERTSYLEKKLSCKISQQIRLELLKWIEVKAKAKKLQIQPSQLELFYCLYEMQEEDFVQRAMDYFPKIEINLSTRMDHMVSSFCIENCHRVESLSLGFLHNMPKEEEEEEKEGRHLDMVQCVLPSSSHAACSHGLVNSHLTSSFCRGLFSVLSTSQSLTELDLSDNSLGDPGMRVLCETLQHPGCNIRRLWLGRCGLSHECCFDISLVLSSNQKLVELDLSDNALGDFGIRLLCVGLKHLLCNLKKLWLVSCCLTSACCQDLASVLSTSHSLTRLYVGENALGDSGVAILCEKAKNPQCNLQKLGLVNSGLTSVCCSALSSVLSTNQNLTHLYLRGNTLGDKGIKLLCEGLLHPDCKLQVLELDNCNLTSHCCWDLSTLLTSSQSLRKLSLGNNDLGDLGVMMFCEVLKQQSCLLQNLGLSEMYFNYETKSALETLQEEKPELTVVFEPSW

[5] = target: T1, NACHT, LRR and PYD domains-containing protein 3; test: Inhibition of NLRP3 inflammasome activation in LPS-primed mouse bone marrow derived macrophages assessed as reduction in IL-1beta level preincubated for 30 mins followed by addition of ATP and measured after 1 hr by ELISA method
[6] = target: T2, NACHT, LRR and PYD domains-containing protein 3; test: Inhibition of NLRP3 inflammasome activation in LPS-primed human THP1 cells assessed as reduction in IL-1beta level preincubated for 1 hr followed by addition of ATP and measured after 1 hr by ELISA method
[7] = target: T2, NACHT, LRR and PYD domains-containing protein 3; test: Inhibition of NLRP3 inflammasome activation in PMA differentiated human THP1 cells assessed as reduction in IL-1beta level at 10 uM preincubated for 30 mins followed by addition of MSU and meaured after 6 hrs by ELISA method relative to control
[8] = target: T2, NACHT, LRR and PYD domains-containing protein 3; test: Inhibition of NLRP3 inflammasome activation in PMA differentiated human THP1 cells assessed as reduction in IL-1beta level preincubated for 30 mins followed by addition of MSU and meaured after 6 hrs by ELISA method relative to control
[9] = target: T1, NACHT, LRR and PYD domains-containing protein 3; test: Inhibition of NLRP3 inflammasome activation in mouse J774A.1 cells assessed as reduction in IL-1beta level preincubated for 2 hrs followed by LPS-stimulation and further incubated for 5.5 hrs and subsequently ATP addition and measured after 30 mins by ELISA method; type: cell-based
THP-1 [10] = test: Inhibition of pyroptosis in PMA-differentiated and LPSprimed human THP1 cells assessed as LDH activity at 10 uM preincubated for 1 hr followed by addition of ATP and measured after 1 hr by CytoTox 96 Non-Radioactive Cytotoxicity Assay relative to control; type: functional
[11] = target: T2, NACHT, LRR and PYD domains-containing protein 3; test: Inhibition of recombinant human NLRP3 ATPase assessed as reduction in ADP formation preincubated for 10 mins followed by ATP addition and measured after 40 mins by ADP-Glo assay
THP-1 [12] = test: Inhibition of pyroptosis in PMA-differentiated and LPS-primed human THP1 cells assessed as LDH activity preincubated for 1 hr followed by addition of ATP and measured after 1 hr by CytoTox 96 Non-Radioactive Cytotoxicity Assay; type: functional, cell-based
Peroxiredoxin-1 = target: T3, Peroxiredoxin-1 (Homo sapiens, UniProt Q06830); test: Inhibition of PRDX1 in human PMA-differentiated LPS-stimulated THP1 cells assessed as reduction in NLRP3 inflammasome activation preincubated for 1 hr followed by addition of ATP and mesured after 1 hr by ELISA
T3 sequence (Q06830 whole entry): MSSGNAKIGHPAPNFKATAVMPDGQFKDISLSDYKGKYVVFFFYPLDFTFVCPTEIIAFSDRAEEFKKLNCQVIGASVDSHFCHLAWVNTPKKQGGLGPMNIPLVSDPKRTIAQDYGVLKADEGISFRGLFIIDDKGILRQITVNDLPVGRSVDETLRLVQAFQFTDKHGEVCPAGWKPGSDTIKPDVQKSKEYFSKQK

[13] = target: T1, NACHT, LRR and PYD domains-containing protein 3; test: Inhibition of NLRP3 inflammasome activation in LPS-primed mouse J774A.1 cells assessed as reduction in IL-1beta level preincubated for 1 hr followed by addition of ATP and measured after 30 mins by ELISA method
[14] = target: T1, NACHT, LRR and PYD domains-containing protein 3; test: Inhibition of NLRP3 inflammasome activation in LPS-primed mouse bone marrow derived macrophages incubated for 1 hr followed by addition of ATP and measured after 1 hr by immunoblotting analysis
[15] = Half life in C57BL/6 mouse plasma at 3 mg/kg, iv or 20 mg/kg, po; type: ADME, organism-based; settings: in vivo
[16] = target: T2, NACHT, LRR and PYD domains-containing protein 3; test: Inhibition of NLRP3 inflammasome activation in LPS-primed human THP1 cells assessed as reduction in IL-1beta level at 20 uM preincubated for 1 hr followed by addition of ATP and measured after 3 hrs by ELISA method relative to control
[17] = target: T1, NACHT, LRR and PYD domains-containing protein 3; test: Inhibition of NLRP3 inflammasome activation in LPS-primed mouse NG5 cells assessed as reduction in IL-1beta level incubated for 15followed by addition of ATP by ELISA method; type: cell-based
[18] = target: T1, NACHT, LRR and PYD domains-containing protein 3; test: Inhibition of NLRP3 inflammasome activation in LPS-primed C57BL/6 mouse bone marrow derived macrophages preincubated for 15 mins followed by addition of ATP and measured after 1 hr by ELISA

Compound: CS(=O)(=O)CCC#N [DAPANSUTRILE]
Cmax [2]: 311 µM
IC50 [3]: 0.001 µM

Compound: O=[N+]([O-])c1ccc2[nH]c(-c3cscn3)nc2c1
inhibition [4]: 30%

Compound: CCC1=C(C)CN(C(=O)NCCc2ccc(S(=O)(=O)NC(=O)Nc3c4c(cc5c3CCC5)CCC4)cc2)C1=O
IC50 [5]: 0.042 µM

Compound: O=c1cc(-c2ccc(O)cc2)oc2cc(O)cc(O)c12 [APIGENIN]
inhibition [7]: 42.9%
IC50 [8]: 10 µM

Compound: COc1ccc(Cl)cc1C(=O)NCCc1ccc(S(=O)(=O)NO)cc1
IC50 [9]: 8.45 µM

Compound: C=C(Cc1ccccc1Cl)C(=O)NCCc1ccc(S(N)(=O)=O)cc1
inhibition at 10 µM (THP-1 [10]): 45.8%
IC50 [11]: 74 µM
IC50 (THP-1 [12]): 23.2 µM

Compound: c1cc2[nH]c(-c3cscn3)nc2cn1
inhibition [4]: 30%

Compound: CC1CC(=O)c2s/c(=N\C3CCCCC3)oc2C1 (centres undefined)
IC50 [14]: 1.28 µM

Compound: CC(C)(O)c1coc(S(=O)(=O)NC(=O)Nc2c3c(cc4c2CCC4)CCC3)c1
t1/2 [15]: 3.27 h

Compound: CCCCC/C=C/C(=O)CCc1ccc(O)c(OC)c1
inhibition [16]: 100%

Compound: Cc1ccc(S(=O)(=O)/C=C/C#N)cc1
IC50 [17]: 12 µM

Compound: CCCCCCC/C=C/C(=O)CCc1ccc(O)c(OC)c1
inhibition [16]: 60.3%

The next lines start with the values.

inhibition [1]: 21.3%
Compound: O=c1[nH]c(-c2ccc(C(F)(F)F)cc2)nc2ccccc12

IC50 [6]: 10 µM
Compound: CCn1c(-c2ccccc2)nc2cc(C)ccc21

IC50 (Peroxiredoxin-1): 0.95 µM
Compound: O=C1/C(=C/c2ccccn2)CNC/C1=C\c1ccccn1

IC50 [13]: 5 µM
Compound: O=c1[nH]c(-c2ccc([N+](=O)[O-])cc2)nc2ccccc12

inhibition [7]: 49.5%
Compound: O=c1cc(-c2ccc(Cl)c(Cl)c2)oc2ccccc12

IC50 [13]: 5 µM
Compound: COc1ccc2c(c1)C(=O)N(c1ccccc1)C2=O

inhibition [1]: 28.8%
Compound: COc1ccc(-c2nc(O)c3ccccc3n2)cc1

IC50 [18]: 25 µM
Compound: Cc1cccc(Nc2ccccc2C(=O)O)c1C [MEFENAMIC ACID]
